Reference: BindingDB's records for doi:10.1016/j.bmcl.2004.12.073 (Vernalis (R&D), 2005)

Molecular target: Cyclin-A2/Cyclin-dependent kinase 2 (Homo sapiens, UniProt P24941)
Experiment: CDK Inhibition Assay
Conditions: pH 7.5; 22 °C
Experimental: In vitro kinase assay using purified CDK2/Cyclin A was incubated at room temperature with substrate, and test compounds in the presence of 100 uM ATP/ [gamma-33P] ATP. Assays were performed in 96-well polypropylene plates. 33P incorporation into substrate was measured using a scintillation counter.

IC50: 230 nM
Structure (SMILES): CC(C)c1cnn2c(Nc3ccc(S(C)(=O)=O)cc3)cc(Cl)nc12 [5-chloro-N-(4-methanesulfonylphenyl)-3-(propan-2-yl)pyrazolo[1,5-a]pyrimidin-7-amine]
